The supplement of paper PMC6411743

What follows are targets tested with Nc1nc2c(ncn2[C@@H]2O[C@H](COP(=O)(O)OP(=O)(O)OP(=O)(O)O)[C@@H](O)[C@H]2O)c(=O)[nH]1 [guanosine triphosphate] (assay: pEC50 of GTP-induced change in protein thermal stability (2D-TPP)).
Procedure: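 2D thermal proteome profiling in Jurkat crude lysate. Lysate was treated 10 min at room temperature with Na-GTP (0, 0.001, 0.01, 0.1, 0.5 mM), heated to 12 temperatures (42-63.9 °C) for 3 min, and soluble protein was quantified by TMT10 LC-MS/MS. pEC50 is the median over replicates of dose-response fits (FDR-controlled hits).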
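Wherever pEC50 of ATP-induced change in protein thermal stability (2D-TPP) is given: lysate dosed with Na-ATP at 0 0.005 0.05 0.5 and 2 mM.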

UniProt O00506, sequence (O00506 whole entry, looked up): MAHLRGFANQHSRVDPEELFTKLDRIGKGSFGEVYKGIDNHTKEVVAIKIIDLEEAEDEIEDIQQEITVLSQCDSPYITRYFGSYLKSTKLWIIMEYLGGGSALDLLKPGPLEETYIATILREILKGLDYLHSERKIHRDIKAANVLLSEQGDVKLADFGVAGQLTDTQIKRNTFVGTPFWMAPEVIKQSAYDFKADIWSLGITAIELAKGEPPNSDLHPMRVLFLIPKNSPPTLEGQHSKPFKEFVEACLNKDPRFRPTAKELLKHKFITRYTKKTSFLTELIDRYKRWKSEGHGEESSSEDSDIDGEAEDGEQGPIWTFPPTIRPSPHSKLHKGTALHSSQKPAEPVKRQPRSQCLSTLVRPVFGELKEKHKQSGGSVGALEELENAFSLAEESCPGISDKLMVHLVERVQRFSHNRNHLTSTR
UniProt P0DMV8, sequence (P0DMV8 whole entry, looked up): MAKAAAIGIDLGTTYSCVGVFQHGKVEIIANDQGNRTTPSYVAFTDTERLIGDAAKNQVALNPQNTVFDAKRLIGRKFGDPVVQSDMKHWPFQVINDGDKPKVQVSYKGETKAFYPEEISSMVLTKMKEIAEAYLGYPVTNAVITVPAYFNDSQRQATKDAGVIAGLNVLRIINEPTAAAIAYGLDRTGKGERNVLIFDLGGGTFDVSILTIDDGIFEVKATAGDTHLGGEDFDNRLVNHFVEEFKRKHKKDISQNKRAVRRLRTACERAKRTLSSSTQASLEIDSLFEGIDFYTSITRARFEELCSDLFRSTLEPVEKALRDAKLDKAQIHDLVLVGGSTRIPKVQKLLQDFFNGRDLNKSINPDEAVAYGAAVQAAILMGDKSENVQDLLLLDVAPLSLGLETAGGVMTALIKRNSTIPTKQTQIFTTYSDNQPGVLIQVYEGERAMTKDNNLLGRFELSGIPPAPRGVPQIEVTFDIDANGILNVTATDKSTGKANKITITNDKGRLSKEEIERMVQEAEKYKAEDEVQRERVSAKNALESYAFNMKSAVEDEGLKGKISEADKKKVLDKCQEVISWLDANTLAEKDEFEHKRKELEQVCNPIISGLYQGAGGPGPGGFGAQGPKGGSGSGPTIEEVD
UniProt Q9H089, sequence (Q9H089 whole entry): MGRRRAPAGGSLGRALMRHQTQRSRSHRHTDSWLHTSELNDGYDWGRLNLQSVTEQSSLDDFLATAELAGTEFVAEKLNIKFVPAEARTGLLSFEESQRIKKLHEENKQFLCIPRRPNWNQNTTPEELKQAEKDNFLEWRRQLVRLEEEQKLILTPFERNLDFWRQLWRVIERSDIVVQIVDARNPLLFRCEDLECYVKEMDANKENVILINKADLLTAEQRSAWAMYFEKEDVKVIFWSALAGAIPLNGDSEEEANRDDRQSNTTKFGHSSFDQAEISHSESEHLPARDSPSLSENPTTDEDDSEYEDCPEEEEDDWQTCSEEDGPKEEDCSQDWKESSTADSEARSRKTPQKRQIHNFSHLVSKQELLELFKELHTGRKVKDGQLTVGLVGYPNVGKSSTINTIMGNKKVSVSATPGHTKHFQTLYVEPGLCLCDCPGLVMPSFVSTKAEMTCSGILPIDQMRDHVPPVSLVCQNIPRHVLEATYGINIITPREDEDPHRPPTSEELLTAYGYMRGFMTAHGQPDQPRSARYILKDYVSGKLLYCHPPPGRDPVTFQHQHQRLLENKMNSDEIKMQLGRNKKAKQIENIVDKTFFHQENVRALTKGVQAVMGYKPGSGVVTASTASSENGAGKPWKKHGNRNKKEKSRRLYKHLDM
UniProt Q92608, sequence (Q92608 whole entry): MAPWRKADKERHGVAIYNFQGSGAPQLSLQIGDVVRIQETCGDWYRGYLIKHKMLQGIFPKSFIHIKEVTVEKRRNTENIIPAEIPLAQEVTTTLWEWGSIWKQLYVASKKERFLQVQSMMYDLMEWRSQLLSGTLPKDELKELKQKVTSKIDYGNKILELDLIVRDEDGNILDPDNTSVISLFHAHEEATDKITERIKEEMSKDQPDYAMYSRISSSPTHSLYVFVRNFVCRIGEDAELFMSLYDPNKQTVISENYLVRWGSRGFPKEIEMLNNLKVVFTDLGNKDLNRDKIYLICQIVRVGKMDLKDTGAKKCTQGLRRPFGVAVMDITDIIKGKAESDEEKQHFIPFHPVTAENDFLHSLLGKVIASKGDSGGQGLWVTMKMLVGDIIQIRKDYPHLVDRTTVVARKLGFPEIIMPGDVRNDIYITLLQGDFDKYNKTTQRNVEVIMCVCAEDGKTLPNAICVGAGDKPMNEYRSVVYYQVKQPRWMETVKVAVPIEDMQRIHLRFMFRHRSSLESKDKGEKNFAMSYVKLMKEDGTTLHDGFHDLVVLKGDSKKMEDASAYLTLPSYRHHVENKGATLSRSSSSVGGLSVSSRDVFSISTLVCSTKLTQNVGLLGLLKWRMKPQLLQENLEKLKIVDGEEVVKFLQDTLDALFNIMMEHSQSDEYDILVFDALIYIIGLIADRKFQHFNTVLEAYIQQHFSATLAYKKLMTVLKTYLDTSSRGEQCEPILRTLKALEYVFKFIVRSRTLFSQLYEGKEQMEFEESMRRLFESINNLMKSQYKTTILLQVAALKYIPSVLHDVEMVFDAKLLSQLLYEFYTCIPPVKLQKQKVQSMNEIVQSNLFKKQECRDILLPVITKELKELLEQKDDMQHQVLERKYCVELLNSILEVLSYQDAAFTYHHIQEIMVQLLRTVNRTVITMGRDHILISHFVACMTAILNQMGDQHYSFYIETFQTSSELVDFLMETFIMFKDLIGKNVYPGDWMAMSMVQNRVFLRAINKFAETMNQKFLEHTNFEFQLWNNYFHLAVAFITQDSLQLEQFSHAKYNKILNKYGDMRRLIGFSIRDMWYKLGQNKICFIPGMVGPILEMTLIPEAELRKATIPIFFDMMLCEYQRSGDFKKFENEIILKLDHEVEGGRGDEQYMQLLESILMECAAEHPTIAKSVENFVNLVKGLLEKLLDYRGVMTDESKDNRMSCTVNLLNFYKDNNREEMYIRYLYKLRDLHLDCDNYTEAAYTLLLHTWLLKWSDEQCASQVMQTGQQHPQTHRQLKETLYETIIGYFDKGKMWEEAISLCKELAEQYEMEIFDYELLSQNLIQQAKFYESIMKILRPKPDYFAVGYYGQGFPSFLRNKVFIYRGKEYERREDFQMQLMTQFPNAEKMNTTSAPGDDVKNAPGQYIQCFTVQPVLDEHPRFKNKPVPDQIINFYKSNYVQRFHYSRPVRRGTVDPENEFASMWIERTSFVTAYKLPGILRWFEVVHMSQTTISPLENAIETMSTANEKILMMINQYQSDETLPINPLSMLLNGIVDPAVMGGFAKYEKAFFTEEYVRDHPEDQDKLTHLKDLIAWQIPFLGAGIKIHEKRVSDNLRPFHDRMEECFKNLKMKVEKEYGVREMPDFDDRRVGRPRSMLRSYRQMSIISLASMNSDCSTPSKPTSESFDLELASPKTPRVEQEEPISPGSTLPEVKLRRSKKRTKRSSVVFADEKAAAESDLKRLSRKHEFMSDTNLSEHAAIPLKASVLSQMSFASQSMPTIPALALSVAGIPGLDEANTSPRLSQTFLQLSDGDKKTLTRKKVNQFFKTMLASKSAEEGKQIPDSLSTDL
UniProt P11234, sequence (P11234 whole entry): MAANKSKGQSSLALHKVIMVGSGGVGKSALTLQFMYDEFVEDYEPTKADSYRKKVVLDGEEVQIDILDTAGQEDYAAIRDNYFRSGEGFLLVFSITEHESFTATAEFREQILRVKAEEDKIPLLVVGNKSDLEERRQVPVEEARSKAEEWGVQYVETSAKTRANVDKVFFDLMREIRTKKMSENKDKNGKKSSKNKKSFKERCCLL
UniProt Q9BSD7, sequence (Q9BSD7 whole entry): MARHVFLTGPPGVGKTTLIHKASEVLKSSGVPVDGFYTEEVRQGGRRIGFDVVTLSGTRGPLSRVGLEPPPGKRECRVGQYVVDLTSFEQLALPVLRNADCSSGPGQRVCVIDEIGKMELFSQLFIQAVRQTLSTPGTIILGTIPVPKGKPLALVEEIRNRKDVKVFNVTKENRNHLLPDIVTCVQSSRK

“UniProt O95747 (effect direction: stabilized)” and “POFUT1 (effect direction: stabilized) (UniProt Q9H488)” are within 0.2 log units of each other in pEC50: 3.79 for the first, 3.78 for the second.

“GFM1 (effect direction: stabilized) (UniProt Q96RP9)” and “MFN1 (effect direction: stabilized) (UniProt Q8IWA4)” are within 0.2 log units of each other in pEC50: 4.04 for the first, 3.96 for the second.

“UniProt P63000 (effect direction: stabilized)” and “UniProt Q9Y3L5 (effect direction: stabilized)” are within 0.2 log units of each other in pEC50: 3.84 for the first, 3.83 for the second.

Compared with “GDI2 (effect direction: stabilized) (UniProt P50395)”, “NRAS (effect direction: stabilized) (UniProt P01111)” is higher in pEC50: 3.74 for the first, 4.01 for the second.

Going from “RAP2A (effect direction: stabilized) (UniProt P10114)” to “GIMAP4 (effect direction: stabilized) (UniProt Q9NUV9)”, the pEC50 falls from 4.47 to 3.72.

Going from “DDX1 (effect direction: stabilized) (UniProt Q92499)” to “NKIRAS2 (effect direction: stabilized) (UniProt Q9NYR9)”, the pEC50 falls from 4.57 to 4.17.

“DNM2 (effect direction: stabilized) (UniProt P50570)” and “GNAQ (effect direction: stabilized) (UniProt P50148)” are within 0.2 log units of each other in pEC50: 3.78 for the first, 3.6 for the second.

Going from “DOCK2 (effect direction: stabilized) (UniProt Q92608)” to “RALB (effect direction: stabilized) (UniProt P11234)”, the pEC50 rises from 3.81 to 4.14.

“COASY (effect direction: stabilized) (UniProt Q13057)” and “SAR1B (effect direction: stabilized) (UniProt Q9Y6B6)” are within 0.2 log units of each other in pEC50: 4.03 for the first, 4.16 for the second.

Going from “EIF5B (effect direction: stabilized) (UniProt O60841)” to “TUFM (effect direction: stabilized) (UniProt P49411)”, the pEC50 rises from 3.81 to 4.41.

“RAB11B (effect direction: stabilized) (UniProt Q15907)” and “ATAD3A (effect direction: stabilized) (UniProt Q9NVI7)” are within 0.2 log units of each other in pEC50: 4.23 for the first, 4.22 for the second.

Going from “UniProt Q9BSD7 (effect direction: stabilized)” to “GNAO1 (effect direction: stabilized) (UniProt P09471)”, the pEC50 rises from 3.96 to 4.24.

Compared with “UniProt Q5JTY5 (effect direction: stabilized)”, “ARL1 (effect direction: stabilized) (UniProt P40616)” is lower in pEC50: 4.22 for the first, 3.92 for the second.

First: ACSF3 (effect direction: destabilized) (UniProt Q4G176)
Second: RSRC2 (effect direction: stabilized) (UniProt Q7L4I2)
The pEC50 of the first is lower: 3.56 for the first, 3.79 for the second.

Compared with “ARF3 (effect direction: stabilized) (UniProt P61204)”, “RFC3 (effect direction: stabilized) (UniProt P40938)” is lower in pEC50: 4.12 for the first, 3.85 for the second.

First: UniProt P62805 (effect direction: stabilized)
Second: SRP72 (effect direction: stabilized) (UniProt O76094)
The pEC50 of the first is lower: 3.69 for the first, 4.01 for the second.

Going from “PANK3 (effect direction: stabilized) (UniProt Q9H999)” to “RNGTT (effect direction: stabilized) (UniProt O60942)”, the pEC50 rises from 3.41 to 4.39.

“UniProt Q9NZ01 (effect direction: stabilized)” and “SACS (effect direction: stabilized) (UniProt Q9NZJ4)” are within 0.2 log units of each other in pEC50: 3.66 for the first, 3.82 for the second.

“RRAS (effect direction: stabilized) (UniProt P10301)” and “UniProt O00506 (effect direction: stabilized)” are within 0.2 log units of each other in pEC50: 3.84 for the first, 3.86 for the second.

Going from “ARL6 (effect direction: stabilized) (UniProt Q9H0F7)” to “GBP1 (effect direction: stabilized) (UniProt P32455)”, the pEC50 falls from 4.1 to 3.82.

“PCK2 (effect direction: stabilized) (UniProt Q16822)” and “DNM1 (effect direction: stabilized) (UniProt Q05193)” are within 0.2 log units of each other in pEC50: 3.79 for the first, 3.62 for the second.

Going from “TAP1 (effect direction: stabilized) (UniProt Q03518)” to “MMAA (effect direction: stabilized) (UniProt Q8IVH4)”, the pEC50 rises from 3.74 to 4.08.

“DHX37 (effect direction: stabilized) (UniProt Q8IY37)” and “RFC5 (effect direction: stabilized) (UniProt P40937)” are the same in pEC50: 3.8 for the first, 3.8 for the second.

Going from “HSPD1 (effect direction: destabilized) (UniProt P10809)” to “PANK4 (effect direction: stabilized) (UniProt Q9NVE7)”, the pEC50 falls from 4.2 to 3.55.

Compared with “CDC123 (effect direction: stabilized) (UniProt O75794)”, “RAB27A (effect direction: stabilized) (UniProt P51159)” is higher in pEC50: under 3.3 for the first, 3.92 for the second.

“RAB33B (effect direction: stabilized) (UniProt Q9H082)” and “UniProt A3KMH1 (effect direction: stabilized)” are within 0.2 log units of each other in pEC50: 4.12 for the first, 3.98 for the second.

“RECQL (effect direction: destabilized) (UniProt P46063)” and “RAB1B (effect direction: stabilized) (UniProt Q9H0U4)” are within 0.2 log units of each other in pEC50: 3.84 for the first, 3.88 for the second.

Compared with “RAC2 (effect direction: stabilized) (UniProt P15153)”, “UniProt O14966 (effect direction: stabilized)” is higher in pEC50: 3.98 for the first, 4.27 for the second.

First: UniProt P84103 (effect direction: stabilized)
Second: SAFB (effect direction: destabilized) (UniProt Q15424)
UniProt Q15424, sequence (Q15424 whole entry): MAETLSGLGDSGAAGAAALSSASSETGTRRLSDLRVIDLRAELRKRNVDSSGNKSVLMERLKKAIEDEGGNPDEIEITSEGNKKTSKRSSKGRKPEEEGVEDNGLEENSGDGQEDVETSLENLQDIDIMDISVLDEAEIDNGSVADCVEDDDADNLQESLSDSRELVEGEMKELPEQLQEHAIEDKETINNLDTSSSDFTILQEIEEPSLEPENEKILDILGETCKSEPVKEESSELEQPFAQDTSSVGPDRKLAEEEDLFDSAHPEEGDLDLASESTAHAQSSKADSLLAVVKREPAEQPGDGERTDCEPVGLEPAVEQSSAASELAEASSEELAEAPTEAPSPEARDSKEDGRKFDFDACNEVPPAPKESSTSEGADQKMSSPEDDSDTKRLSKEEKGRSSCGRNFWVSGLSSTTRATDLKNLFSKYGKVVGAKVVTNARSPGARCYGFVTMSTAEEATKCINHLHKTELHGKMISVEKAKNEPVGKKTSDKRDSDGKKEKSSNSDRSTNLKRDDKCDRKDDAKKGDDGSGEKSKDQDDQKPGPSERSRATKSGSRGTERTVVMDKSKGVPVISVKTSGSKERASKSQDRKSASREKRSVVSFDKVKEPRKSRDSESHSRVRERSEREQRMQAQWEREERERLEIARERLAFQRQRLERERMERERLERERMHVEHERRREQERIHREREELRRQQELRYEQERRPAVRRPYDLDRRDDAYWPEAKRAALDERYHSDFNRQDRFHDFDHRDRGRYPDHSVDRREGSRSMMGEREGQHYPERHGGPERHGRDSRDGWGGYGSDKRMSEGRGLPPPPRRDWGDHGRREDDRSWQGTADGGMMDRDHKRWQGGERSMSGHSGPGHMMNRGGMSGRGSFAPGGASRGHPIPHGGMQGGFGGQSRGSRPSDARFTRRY
The pEC50 of the first is lower: 3.94 for the first, 4.81 for the second.

First: UniProt P62330 (effect direction: stabilized)
Sequence (P62330 whole entry): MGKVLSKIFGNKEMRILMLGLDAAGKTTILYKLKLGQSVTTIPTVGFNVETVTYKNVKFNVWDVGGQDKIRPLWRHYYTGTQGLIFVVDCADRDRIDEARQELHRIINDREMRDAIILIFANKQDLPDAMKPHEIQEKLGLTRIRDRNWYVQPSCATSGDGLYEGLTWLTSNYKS
Second: ALG1 (effect direction: stabilized) (UniProt Q9BT22)
The pEC50 of the first is higher: 3.98 for the first, 3.56 for the second.

“RAB12 (effect direction: stabilized) (UniProt Q6IQ22)” and “UniProt P84095 (effect direction: stabilized)” are within 0.2 log units of each other in pEC50: 3.93 for the first, 3.83 for the second.

“RAB37 (effect direction: stabilized) (UniProt Q96AX2)” and “LSG1 (effect direction: stabilized) (UniProt Q9H089)” are within 0.2 log units of each other in pEC50: 3.8 for the first, 3.88 for the second.

First: ARF4 (effect direction: stabilized) (UniProt P18085)
Second: UniProt P84085 (effect direction: stabilized)
The pEC50 of the first is higher: 4.57 for the first, 4.13 for the second.

Going from “RFC4 (effect direction: stabilized) (UniProt P35249)” to “SRP68 (effect direction: stabilized) (UniProt Q9UHB9)”, the pEC50 rises from 3.91 to 4.12.

Going from “GNL2 (effect direction: stabilized) (UniProt Q13823)” to “DRG1 (effect direction: stabilized) (UniProt Q9Y295)”, the pEC50 rises from 4.2 to 4.7.

“EEFSEC (effect direction: stabilized) (UniProt P57772)” and “DHX30 (effect direction: destabilized) (UniProt Q7L2E3)” are the same in pEC50: 3.92 for the first, 3.92 for the second.

First: TUBA1A (effect direction: stabilized) (UniProt Q71U36)
Second: RAB23 (effect direction: stabilized) (UniProt Q9ULC3)
The pEC50 of the first is lower: 3.4 for the first, 4.02 for the second.

For “UniProt P08134 (effect direction: stabilized)”, the pEC50 was 4.43.

The targets below were run with Nc1ncnc2c1ncn2[C@@H]1O[C@H](COP(=O)(O)OP(=O)(O)OP(=O)(O)O)[C@@H](O)[C@H]1O [adenosine triphosphate] (assay: pEC50 of ATP-induced change in protein thermal stability (2D-TPP)).
How it was run: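 Soluble protein was quantified by TMT LC-MS/MS after ultracentrifugation of Jurkat crude lysate that had been dosed at five concentrations including vehicle (10 min, room temperature), heated at 12 temperatures of 42–63.9 °C for 3 min, and incubated with NP40 and benzonase at 4 °C for 60 min. Fold changes against vehicle at each temperature were median-normalised, and pEC50 was derived from per-replicate dose-response fits over adjacent temperature pairs. Hits were called with permutation-based false discovery rate control in three independent experiments.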

Going from “PGP (effect direction: destabilized) (UniProt A6NDG6)” to “RPA1 (effect direction: stabilized) (UniProt P27694)”, the pEC50 rises from under 2.7 to 3.58.

“IPO5 (effect direction: stabilized) (UniProt O00410)” and “UniProt Q9BQ75 (effect direction: stabilized)” cannot be ordered by pEC50: under 2.7 for the first, under 2.7 for the second.

First: C1QBP (effect direction: stabilized) (UniProt Q07021)
Second: MLKL (effect direction: stabilized) (UniProt Q8NB16)
The pEC50 of the first is lower: under 2.7 for the first, 3.44 for the second.

First: SNX1 (effect direction: stabilized) (UniProt Q13596)
Second: GLUD1 (effect direction: stabilized) (UniProt P00367)
The pEC50 of the first is lower: under 2.7 for the first, 4.21 for the second.

Compared with “TLN1 (effect direction: stabilized) (UniProt Q9Y490)”, “UniProt P0DMV8 (effect direction: stabilized)” is higher in pEC50: under 2.7 for the first, 3.72 for the second.

Going from “GSS (effect direction: stabilized) (UniProt P48637)” to “UniProt Q9UPN7 (effect direction: stabilized)”, the pEC50 falls from 3.56 to 2.97.

Going from “GPKOW (effect direction: stabilized) (UniProt Q92917)” to “OXA1L (effect direction: stabilized) (UniProt Q15070)”, the pEC50 falls from 3.19 to under 2.7.
